According to patent US20110306563A1, “MACROLACTONE DERIVATIVES, METHOD FOR THE PRODUCTION THEREOF AND USE THEREOF FOR THE TREATMENT OF CANCER” (SANOFI, priority 2008, published 2011):
Where two headings read alike, the source gives them in different places.

Key:
Assay type in all cases: cell-based
HCT116 = assay: 14C-Thymidine incorporation assay, HCT116; details: Homo sapiens, HCT-116
Protocol: (§1) Experimental conditions for 14C-Thymidine incorporation assays: • 1) Cells were seeded in 96 well Cytostar microplates in 180 μl of culture medium (DMEM supplemented with 10% Fetal Calf Serum). • Seeding density are 2500 cells/well for HCT116, 5000 cells/well for HT29 and PC3 and 10000 cells/well for MDA-MB231, MDA-A1, H460 and B16F10. • 2) The microplates were incubated 4 h at 37° C. with 5% CO2 • 3) 10 μl of test compound were added • 4) The microplates were incubated 72 h at 37° C. with 5% CO2 • 5) 10 μl of 14C-Thymidine at 10 μCi/ml was added • 6) The microplates were incubated 24 h at 37° C. with 5% CO2 • 7) The radioactivity incorporated in the cells was measured with a Microbeta Trilux radioactivity scintillation counter (Wallac).

HT29 = assay: 14C-Thymidine incorporation assay, HT29; details: Homo sapiens, HT-29; HT29, Colon; 72 h + 24 h 14C-Thymidine
Protocol: as §1

CEM = assay: ATP viability assay (CellTiterGlo), CEM; details: Homo sapiens, CCRF-CEM, Leukemia, 96 h incubation
Protocol: (§2) Experimental conditions for ATP viability assays: • 1) Cells were seeded in 96 well microplates in 135 μl of culture medium. • Culture medium used were RPMI supplemented with 10% Fetal Calf Serum for HL60 and CEM cell lines and DMEM with 10% FCS for Normal Human Dermal Fibroblasts (NHDF). Seeding density was 25000 cells/well for HL60 and CEM and 7500 cells/well for NHDF. • 2) The microplates were incubated 4 h at 37° C. with 5% CO2. • 3) 15 μl of test compound were added • 4) The microplates were incubated 96 h. • 5) 100 μl of a mix of lysing reagent and luciferase/luciferin was added (CellTiterGlo, Promega). The luminescence emitted was measured with a Microbeta Trilux counter (Wallac).

MDA-MB231 = assay: 14C-Thymidine incorporation assay, MDA-MB231; details: Homo sapiens, MDA-MB-231; MDA-MB231, Breast; 72 h + 24 h 14C-Thymidine
Protocol: as §1

H460 = assay: 14C-Thymidine incorporation assay, H460; details: Homo sapiens, NCI-H460; H460, Lung; 72 h + 24 h 14C-Thymidine
Protocol: as §1

B16F10 = assay: 14C-Thymidine incorporation assay, B16F10; details: Mus musculus, B16-F10; B16F10, Melanoma; 72 h + 24 h 14C-Thymidine
Protocol: as §1

[1] = test system: Normal Human Dermal Fibroblasts (NHDF); assay: ATP viability assay (CellTiterGlo), NHDF; details: 96 h incubation
Protocol: as §2

HL60 = assay: ATP viability assay (CellTiterGlo), HL60; details: Homo sapiens, HL-60; HL60, Leukemia; 96 h incubation
Protocol: as §2

MDA-A1 = assay: 14C-Thymidine incorporation assay, MDA-A1; details: MDA-A1, Breast; 72 h + 24 h 14C-Thymidine
Protocol: as §1

PC3 = assay: 14C-Thymidine incorporation assay, PC3; details: Homo sapiens, PC-3; PC3, Prostate; 72 h + 24 h 14C-Thymidine
Protocol: as §1

[2] = HCT116 (colon), average, read-out: Average IC50 (nM) against HCT116 (colon)
[3] = HCT116, Colon, 72 h + 24 h 14C-Thymidine, read-out: IC50

`CCC(C)C1C(=O)NC(Cc2ccc(O)c(Cl)c2)C(=O)NC(C(C)(C)O)C(=O)OC(c2ccccc2)C(C)/C=C/C=C(\C)C(OC)CC2OC2(C)C(=O)N1C` (stereo not drawn) [III] showed an IC50 (HCT116; [2]) of 0.326 nM.

Work on `CCC(C)C1C(=O)NC(Cc2cc(Cl)c(O)c(Cl)c2)C(=O)NC(C(C)(C)O)C(=O)OC(c2ccccc2)C(C)/C=C/C=C(\C)C(OC)CC2OC2(C)C(=O)N1C` (stereo not drawn) [II] yielded an IC50 (HT29) of 3 to 12.5 nM, an IC50 (CEM) of 7.1 to 10.5 nM and an IC50 (HCT116; [3]) of 0.6 to 5.6 nM. It also gave an IC50 (MDA-MB231) of 4.8 to 16.8 nM, an IC50 (H460) of 9.1 to 10.4 nM and an IC50 (B16F10) of 4.5 to 25.2 nM. For the same molecule, the IC50 [1] was 6.2 to 9.5 nM, the IC50 (HL60) was 9.5 to 15 nM and the IC50 (MDA-A1) was 1.4 to 20.8 nM. For the same molecule, the IC50 (PC3) was 4.4 to 16 nM.

`CCC(C)C1C(=O)NC(Cc2cc(Cl)c(OC)c(Cl)c2)C(=O)NC(C(C)(C)O)C(=O)OC(c2ccccc2)C(C)/C=C/C=C(\C)C(OC)CC2OC2(C)C(=O)N1C` (stereo not drawn) [IX] showed an IC50 (HCT116; [3]) of 2.1 to 2.2 nM, an IC50 (MDA-MB231) of 5.1 to 8.4 nM and an IC50 (MDA-A1) of 9.6 to 14.1 nM.

Work on `CCC(C)C1C(=O)NC(Cc2ccc(O)c(Br)c2)C(=O)NC(C(C)(C)O)C(=O)OC(c2ccccc2)C(C)/C=C/C=C(\C)C(OC)C/C=C(/C)C(=O)N1C` (stereo not drawn) [VIII] yielded an IC50 (HCT116; [2]) of 2.1 nM.

`CCC(C)C1C(=O)NC(Cc2ccc(O)c(Br)c2)C(=O)NC(C(C)(C)O)C(=O)OC(c2ccccc2)C(C)/C=C/C=C(\C)C(OC)CC2OC2(C)C(=O)N1C` (stereo not drawn) [VII] was tested, and the IC50 (HCT116; [2]) was 0.268 nM.

`CCC(C)C1C(=O)NC(Cc2cc(Cl)c(O)c(Br)c2)C(=O)NC(C(C)(C)O)C(=O)OC(c2ccccc2)C(C)/C=C/C=C(\C)C(OC)CC2OC2(C)C(=O)N1C` (stereo not drawn) [VI] showed an IC50 (HCT116; [2]) of 0.393 nM.

For `COC1CC2OC2(C)C(=O)N(C)C(C(C)C)C(=O)NC(Cc2cc(Cl)c(O)c(Cl)c2)C(=O)NC(C(C)(C)O)C(=O)OC(c2ccccc2)C(C)/C=C/C=C/1C` (stereo not drawn) [V], the IC50 (HCT116; [2]) was 0.673 nM.
